≈ marks a conversion by molar mass, not a printed value.
Columns and labels:
Experiment in all cases: Clonogenic assay, colony formation of tumor stem cells from xenografts
Format in all cases: cell-based, human
BXF 1299 = details: Bladder, xenograft BXF 1299, colony formation
Experimental: (§1) Using various human cancer xenografts in vitro, the concentrations of compound B which inhibit formation of tumor colonies of tumor stem cells by 50% (IC50) and 70% (IC70) are determined in a clonogenic assay. Specifically, each solid tumor of bladder cancer (BXF 1036 and BXF 1299), cervical cancer (CEXF 633 and CEXF 773), colic cancer (CXF 1103, CXF 158, CXF 1729, CXF 264 and CXF 280), gastric cancer (GXF 251 and GXF 97), head and neck cancer (HNXF 536), liver cancer (LIXF 575), non small cell lung cancer comprising adeno, squamous epithelium and large cell carcinoma (LXFA 1012, LXFA 289, LXFA 297, LXFA 526, LXFA 592, LXFA 629, LXFA 677, LXFE 409, LXFL 1072, LXFL 430LX and LXFL 529), small cell lung cancer (LXFS 650), mammary cancer (MAXF 1162, MAXF 1384, MAXF 401, MAXF 449, MAXF 574, MAXF 583, MAXF 713 and MAXF 857), melanoma (MEXF 1341, MEXF 462, MEXF 535 and MEXF 989), ovary cancer (OVXF 899), pancreatic cancer (PAXF 546 and PAXF 736), prostate cancer (DU-145 and PC3M), pleuramesothelioma (PXF 1752), renal cancer (RXF 1220, RXF 1393, RXF 393, RXF 631 and RXF 944LX), and sarcoma (SXF 1301 and SXF 463) engrafted on RPMI nu/nu thymus aplastic nude mice were explanted, disaggregated by mincing and enzymatic digestion for 50 minutes using 125 U/mL DNAse I, 41 U/mL collagenase IV, 100 U/ml hyaluronidase III, and 1 U/mL dispase I, and passed through sieves of 200 µm and 50 µm mesh size and washed twice with sterile PBS-buffer to remove cell aggregated from single cells. The clonogenic assay was performed in a 24 multiwell format. Each of the resulting single cell suspensions was added at a density of 2·10^4 to 6·10^4 cells per well to 0.2 ml of Iscove's Modified Dulbecco's Medium (IMDM) containing 20% fetal calf serum and 0.01% gentamicin supplemented with 0.4% (w/v) agar, and plated onto a bottom layer consisting of the same culture medium containing 0.75% (w/v) agar. After 24 hours IMDM containing 20% fetal calf serum and 0.01 % gentamicin, together with a test compound, was added there to. Then, the plate was incubated at 37°C for 10 to 20 days in a humidified atmosphere of air containing 7.5% CO2. Within this period, in vitro tumor growth led to the formation of colonies with a diameter of > 50µm. Colony counts were performed with an automatic image analysis system (OMNICON 3600). 24 hours prior to evaluation, vital colonies were stained with a vital staining dye. Therefore, 100 µl of a sterile aqueous solution of 2-(4-iodophenyl)-3-(4-nitrophenyl)-5-phenyltetrazolium chloride (1 mg/ml) were added to each well of the plate, and plates were incubated for 24 hours at 37°C in a humidified atmosphere of air containing 7.5% CO2. Inhibition of colony formation was expressed as test versus untreated control (T/C-value [%]). IC50 and IC70 values were determined by plotting compound concentration versus cell viability. Table 3: Inhibition of Colony Formation of Tumor Stem Cells by griseusin derivative B

CEXF 633 = details: Cervix, xenograft CEXF 633, colony formation
Experimental: as §1

MEXF 462 = details: Melanoma, xenograft MEXF 462, colony formation
Experimental: as §1

CXF 280 = details: Colon, xenograft CXF 280, colony formation
Experimental: as §1

MAXF 583 = details: Breast, xenograft MAXF 583, colony formation
Experimental: as §1

MEXF 1341 = details: Melanoma, xenograft MEXF 1341, colony formation
Experimental: as §1

MAXF 574 = details: Breast, xenograft MAXF 574, colony formation
Experimental: as §1

LXFL 1072 = details: Lung, non small cell, xenograft LXFL 1072, colony formation
Experimental: as §1

CXF 264 = details: Colon, xenograft CXF 264, colony formation
Experimental: as §1

MEXF 989 = details: Melanoma, xenograft MEXF 989, colony formation
Experimental: as §1

GXF 97 = details: Stomach, xenograft GXF 97, colony formation
Experimental: as §1

RXF 944LX = details: Kidney, xenograft RXF 944LX
Experimental: as §1

HNXF 536 = details: Head and Neck, xenograft HNXF 536, colony formation
Experimental: as §1

CEXF 773 = details: Cervix, xenograft CEXF 773, colony formation
Experimental: as §1

PXF 1752 = details: Pleuramesothelio, xenograft PXF 1752, colony formation
Experimental: as §1

MAXF 857 = details: Breast, xenograft MAXF 857, colony formation
Experimental: as §1

LXFA 297 = details: Lung, non small cell, xenograft LXFA 297, colony formation
Experimental: as §1

DU-145 = details: Prostate, xenograft DU-145, colony formation
Experimental: as §1

C[C@@H]1CC(=O)[C@@H](O)[C@]2(O1)O[C@@H]1CC(=O)O[C@@H]1C1=C2C(=O)c2c(O)cccc2C1=O [Compound B, 4'-dehydro-deacetylgriseusin A]
IC50 (BXF 1299): 1.107 µg/mL (≈ 2.77 µM)
IC70 (BXF 1299): 1.662 µg/mL (≈ 4.15 µM)
IC50 (CEXF 633): 1.310 µg/mL (≈ 3.27 µM)
IC70 (CEXF 633): 1.837 µg/mL (≈ 4.59 µM)
IC50 (MEXF 462): 1.666 µg/mL (≈ 4.16 µM)
IC70 (MEXF 462): 2.152 µg/mL (≈ 5.38 µM)
IC50 (CXF 280): 0.379 µg/mL (≈ 0.947 µM)
IC70 (CXF 280): 0.609 µg/mL (≈ 1.52 µM)
IC50 (MAXF 583): 0.078 µg/mL (≈ 0.195 µM)
IC70 (MAXF 583): 0.195 µg/mL (≈ 0.487 µM)
IC50 (MEXF 1341): 0.462 µg/mL (≈ 1.15 µM)
IC70 (MEXF 1341): 0.673 µg/mL (≈ 1.68 µM)
IC50 (MAXF 574): 0.335 µg/mL (≈ 0.837 µM)
IC70 (MAXF 574): 0.523 µg/mL (≈ 1.31 µM)
IC50 (LXFL 1072): 0.252 µg/mL (≈ 0.629 µM)
IC70 (LXFL 1072): 0.468 µg/mL (≈ 1.17 µM)
IC50 (CXF 264): 0.103 µg/mL (≈ 0.257 µM)
IC70 (CXF 264): 0.215 µg/mL (≈ 0.537 µM)
IC50 (MEXF 989): 0.118 µg/mL (≈ 0.295 µM)
IC70 (MEXF 989): 0.182 µg/mL (≈ 0.455 µM)
IC50 (GXF 97): 0.300 µg/mL (≈ 0.749 µM)
IC70 (GXF 97): 0.495 µg/mL (≈ 1.24 µM)
IC50 (RXF 944LX): 0.116 µg/mL (≈ 0.29 µM)
IC70 (RXF 944LX): 0.171 µg/mL (≈ 0.427 µM)
IC50 (HNXF 536): 0.350 µg/mL (≈ 0.874 µM)
IC70 (HNXF 536): 0.547 µg/mL (≈ 1.37 µM)
IC50 (CEXF 773): 1.936 µg/mL (≈ 4.84 µM)
IC70 (CEXF 773): 2.333 µg/mL (≈ 5.83 µM)
IC50 (PXF 1752): 0.811 µg/mL (≈ 2.03 µM)
IC70 (PXF 1752): 1.253 µg/mL (≈ 3.13 µM)
IC50 (MAXF 857): 1.449 µg/mL (≈ 3.62 µM)
IC70 (MAXF 857): 1.975 µg/mL (≈ 4.93 µM)
IC50 (LXFA 297): 1.461 µg/mL (≈ 3.65 µM)
IC70 (LXFA 297): 2.179 µg/mL (≈ 5.44 µM)
IC50 (DU-145): 1.086 µg/mL (≈ 2.71 µM)
IC70 (DU-145): 1.644 µg/mL (≈ 4.11 µM)

— EP1650209A1, “Griseusin derivatives and their use as antitumor agents” (Oncotest GmbH, priority 2004, dated 2006)
